Measured values: article PMC12186257, “Serendipitous and Systematic Chemoproteomic Discovery of MBLAC2, HINT1, and NME1‑4 Inhibitors from Histone Deacetylase-Targeting Pharmacophores” (ACS Chemical Biology, 2025)
Read-outs that look alike come from different tables or passages of the source.

What was measured:
[1] = tested on: compound-binding proteins such as HDACs, MBLAC2, ISOC1/2, ALDH2, and GATD3A; experiment: chemoproteomic competition assay, proteome-wide target binding profile; design: species or system human; conditions: dose-dependent competition
Description: (§1) MBLAC2 is a metalloenzyme predicted to harbor one or two Zn^2+ ions in its active site. […] In this assay, compounds of interest are incubated at increasing concentrations with a mixture of lysates of MV4–11 and SW620 cells. The compound-treated lysates are then mixed with bead-immobilized hydroxamic acid-containing compounds iA, iC, and iQ (immobilized Quisinostat), which pull down compound-binding proteins such as HDACs, MBLAC2, ISOC1/2, ALDH2, and GATD3A (Figure a) that can be identified and quantified by mass spectrometry (MS). Proteins targeted by the library compounds in a preincubation step are prevented from being pulled down by the immobilized probes, leading to a dose-dependent reduction in MS signal. Initially, 12 metal-chelating compounds were profiled at two concentrations (10 μM and 100 μM) (Figure S3).
(§2) Chemoproteomic competition assays
Sample preparation. For the MBLAC2 and HDAC inhibitor competition assay, the generation of affinity matrices, lysate generation, pulldown assay, and sample preparation were performed as described in detail in REF1. For the kinobeads assay, the generation of affinity matrices, lysate generation, pulldown assay, and sample preparation were performed as described in detail in REF2.
(§3) LC-MS/MS. The different sample types were measured with different LC-MS/MS settings. MBLAC2 2-dose competition assays were measured with the Lumos1 setup, MBLAC2 9-dose competition assays were measured with the Lumos2 setup, and kinobeads assays were measured with the Eclipse setup.
Peptides were analyzed via LC–MS/MS on a Dionex Ultimate3000 nano HPLC coupled to either one of two Orbitrap Fusion Lumos mass spectrometers, or to an Orbitrap Eclipse mass spectrometer, operated via the Thermo Scientific Xcalibur software.
In the all setups, peptides were loaded on a trap column (100 μm × 2 cm, packed in-house with Reprosil-Gold C18 ODS-3 5 μm resin, Dr. Maisch, Ammerbuch) and washed with 5 μL/min solvent A (0.1% formic acid in HPLC grade water) for 10 min. Peptides were then separated on an analytical column (75 μm × 40 cm, packed in-house with Reprosil-Gold C18 3μm resin, Dr. Maisch, Ammerbuch) using a 50 min gradient ranging from 4 to 32% solvent B (0.1% formic acid, 5% DMSO in acetonitrile) in solvent A (0.1% formic acid, 5% DMSO in HPLC grade water) at a flow rate of 300 nL/min.
The mass spectrometers were operated in data-dependent mode, automatically switching between MS1 and MS2 spectra. MS1 spectra were acquired over a mass-to-charge (m/z) range of 360–1300 m/z at a resolution of 60,000 (at m/z 200) in the Orbitrap using a maximum injection time of 50 ms and an automatic gain control (AGC) target value of 4e5.
In Lumos settings, up to 12 peptide precursors were isolated in (isolation width of 1.2 Th for Lumos1 and 1.7 for Lumos2, maximum injection time of 75 ms, AGC value of 1e5 for Lumos1 and 2e5 for Lumos2), fragmented by HCD using 30% normalized collision energy (NCE) and analyzed in the Orbitrap at a resolution of 15,000 (Lumos2) or 30,000 (Lumos1). The dynamic exclusion duration of fragmented precursor ions was set to 20 s (Lumos1) or 30 s (Lumos2). In Eclipse measurements, a cycle time of 2 s was chosen. Peptides were isolated in the quadrupole with an isolation offset of 1.2 (isolation width of 1.2 Th, maximum injection time of 54 ms, AGC target of 200%) and fragmented by […]

[2] = molecular target: casein kinase 2 (CK2) complex proteins (CSNK2A1/3, CSNK2A2, CSNK2B, EIF3J); experiment: Kinobead competition assay; assay type: binding, human; conditions: dose-dependent competition
Text: The binding of KV-24 and KV-30 to the nucleotide-binding pocket raises the question of whether these compounds also target other nucleotide-binding proteins, such as kinases. To evaluate potential off-target effects, we performed Kinobead competition assays. This chemoproteomic approach is conceptually very similar to the one used here in that broad spectrum kinase inhibitors are immobilized on beads. […] PDE1C is a cAMP/cGMP nucleotide-binding protein that features two divalent metal cation cofactors. The hydroxamic acid moiety of KV-24 might chelate these metal cofactors, supporting the hypothesis that KV-24 binds the active site of PDE1C. […]
Given that local GTP production by NME1 and NME2 is essential for fueling dynamin-driven endocytosis, we investigated the effect of KV-50-mediated NME1/2 inhibition on fluorescent transferrin (TF) uptake in cells. HeLa cells were treated with KV-50 or known endocytosis inhibitors (Pitstop-2 and Dynasore), and surface-bound and internalized fluorescent TF were quantified. […]
LC-MS/MS. The different sample types were measured with different LC-MS/MS settings. MBLAC2 2-dose competition assays were measured with the Lumos1 setup, MBLAC2 9-dose competition assays were measured with the Lumos2 setup, and kinobeads assays were measured with the Eclipse setup. […]

[3] = molecular target: recombinant NME1–4; experiment: nucleoside diphosphate kinase activity assay (ATP production from ADP and GTP, Kinase-GLO); assay type: biochemical; conditions: ADP (150 μM) and GTP (150 μM); range over all four enzymes; read-out: EC50 inhibition of NME1–4
Description: To evaluate whether KV-50 binding affects NME activity, we performed enzyme activity assays using recombinant NME1–4. The assay measured NME-catalyzed production of ATP from ADP (150 μM) and GTP (150 μM).
Nucleotide diphosphate kinase activity assays. The phosphotransfer activity of the NDPKs (NME1-4) was measured in a reaction mixture containing buffer A (20 mM Tris-HCl pH 8.0, 150 mM NaCl, and 1 mM MgCl2). All the samples were pipetted in replicates on a 384 well plate. One volume of the respective NDPK protein solution (NME1-4) was added from stock proteins (diluted in buffer a to a concentration of 300 pM) to the wells in four replicates. To these wells, one volume of the inhibitors (Six dilutions were prepared, starting with a 30 µM stock solution and then performing three-fold serial dilutions) was added and incubated at room temperature for 30 minutes. Then, one volume of the substrate mixture (300 μM GTP and 30 μM ADP) was added to the protein-inhibitor mixture-containing wells and incubated at room temperature for 30 minutes. Finally, three volumes of the Kinase-GLO reagent (Promega V6711) containing an ATP-dependent firefly luciferase were added to all the wells and five minutes later, the luminescence was measured using a plate reader. Eight different concentrations of ATP (0 - 10 μM) were used as standards for a calibration curve to calculate the amount of ATP produced by the different NDPKs.

[4] = tested on: HeLa cells; experiment: clathrin-mediated endocytosis of fluorescently labeled transferrin; assay type: cell-based
Description: To test this hypothesis, we measured clathrin-mediated endocytosis of fluorescently labeled transferrin (TF) in the presence and absence of MBLAC2 inhibitors.
CME of transferrin and confocal microscopy analyses.For transferrin uptake experiments HeLa cells were seeded on Matrigel-coated coverslips, and incubated with 0.1 % DMSO, or with 100 µM dynasore, 20 µM KV50, 2 µM KV65, or 2 µM KV79 in media containing 10% FCS at 37°C for 20 h.

[5] = tested on: SW620 cells; experiment: SW620 confluency and metabolic activity (Alamar blue assay); assay type: cell-based; conditions: Homo sapiens, SW-620
[6] = molecular target: T1, HDAC6 (Homo sapiens, UniProt Q9UBN7); experiment: chemoproteomic competition assay (MV4-11/SW620 lysate, iA/iC/iQ beads, MS readout); assay type: binding; conditions: two-dose (1 μM and 10 μM) assay
T1 construct: incubated at increasing concentrations with a mixture of lysates of MV4–11 and SW620 cells; endogenous in cells; host or cells: mixed lysate of MV4-11 and SW620 cells
T1 sequence (Q9UBN7 1-1215): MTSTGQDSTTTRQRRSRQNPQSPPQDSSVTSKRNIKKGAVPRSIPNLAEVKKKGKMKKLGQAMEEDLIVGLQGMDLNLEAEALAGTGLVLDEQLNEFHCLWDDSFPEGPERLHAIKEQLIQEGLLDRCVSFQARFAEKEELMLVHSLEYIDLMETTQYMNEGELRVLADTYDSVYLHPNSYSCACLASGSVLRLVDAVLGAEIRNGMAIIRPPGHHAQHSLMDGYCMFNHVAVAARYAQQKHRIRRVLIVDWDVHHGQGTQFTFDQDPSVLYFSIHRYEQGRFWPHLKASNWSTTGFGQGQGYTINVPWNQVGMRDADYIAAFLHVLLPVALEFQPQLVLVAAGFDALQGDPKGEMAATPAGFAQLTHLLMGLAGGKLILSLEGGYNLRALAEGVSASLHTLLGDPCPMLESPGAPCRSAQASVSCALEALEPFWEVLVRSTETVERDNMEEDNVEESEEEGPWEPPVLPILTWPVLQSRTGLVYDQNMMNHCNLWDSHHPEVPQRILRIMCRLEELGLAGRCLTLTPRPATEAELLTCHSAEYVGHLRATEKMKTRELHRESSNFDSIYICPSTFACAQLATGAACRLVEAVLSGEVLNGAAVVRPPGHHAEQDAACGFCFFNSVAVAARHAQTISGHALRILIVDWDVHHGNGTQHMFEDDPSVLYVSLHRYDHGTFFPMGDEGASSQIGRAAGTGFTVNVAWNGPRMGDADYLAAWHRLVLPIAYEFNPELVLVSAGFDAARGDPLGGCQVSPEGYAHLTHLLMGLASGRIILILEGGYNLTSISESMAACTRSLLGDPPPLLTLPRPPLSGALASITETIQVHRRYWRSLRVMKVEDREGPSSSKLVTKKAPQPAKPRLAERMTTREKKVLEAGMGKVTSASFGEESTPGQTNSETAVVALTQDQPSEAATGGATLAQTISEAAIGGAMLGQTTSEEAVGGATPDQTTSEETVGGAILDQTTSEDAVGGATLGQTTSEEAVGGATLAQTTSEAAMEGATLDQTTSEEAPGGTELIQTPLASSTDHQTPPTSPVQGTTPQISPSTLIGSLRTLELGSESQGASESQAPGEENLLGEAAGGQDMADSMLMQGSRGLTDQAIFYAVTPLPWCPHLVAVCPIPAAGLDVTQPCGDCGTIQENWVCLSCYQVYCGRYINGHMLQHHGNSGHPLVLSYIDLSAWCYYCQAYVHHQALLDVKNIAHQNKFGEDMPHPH
Description: as §1, with “Initially, 12 metal-chelating compounds were profiled at two concentrations (10 μM and 100 μM) (Figure S3).” left out
as §2
(§4) Sample preparation. […]
as §3
(§5) Peptides were analyzed via LC–MS/MS on a Dionex Ultimate3000 nano HPLC coupled to either one of two Orbitrap Fusion Lumos mass spectrometers, or to an Orbitrap Eclipse mass spectrometer, operated via the Thermo Scientific Xcalibur software. […]

[7] = molecular target: T2, MBLAC2 (Homo sapiens, UniProt Q68D91); experiment: as above; assay type: binding; conditions: two-dose (1 μM and 10 μM) assay
T2 construct: incubated at increasing concentrations with a mixture of lysates of MV4–11 and SW620 cells; endogenous in cells; host or cells: mixed lysate of MV4-11 and SW620 cells
T2 sequence (Q68D91 1-279): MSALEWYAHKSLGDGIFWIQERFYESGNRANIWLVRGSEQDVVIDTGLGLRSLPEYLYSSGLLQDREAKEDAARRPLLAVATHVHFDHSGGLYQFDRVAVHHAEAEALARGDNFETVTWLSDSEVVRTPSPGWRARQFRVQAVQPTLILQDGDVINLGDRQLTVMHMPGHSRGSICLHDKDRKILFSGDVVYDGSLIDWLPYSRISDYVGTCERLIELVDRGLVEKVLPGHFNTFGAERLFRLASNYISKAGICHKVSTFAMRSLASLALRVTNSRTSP

[8] = tested on: NMEs; conditions: free nonacetylated Quisinostat; prior competition experiments; cited from earlier work
[9] = molecular target: T3, ISOC1 (Homo sapiens, UniProt Q96CN7); experiment: chemoproteomic competition assay (MV4-11/SW620 lysate, iA/iC/iQ beads, MS readout); assay type: binding; conditions: nine-dose competition assay
T3 construct: incubated at increasing concentrations with a mixture of lysates of MV4–11 and SW620 cells; endogenous in cells; host or cells: mixed lysate of MV4-11 and SW620 cells
T3 sequence (Q96CN7 1-298): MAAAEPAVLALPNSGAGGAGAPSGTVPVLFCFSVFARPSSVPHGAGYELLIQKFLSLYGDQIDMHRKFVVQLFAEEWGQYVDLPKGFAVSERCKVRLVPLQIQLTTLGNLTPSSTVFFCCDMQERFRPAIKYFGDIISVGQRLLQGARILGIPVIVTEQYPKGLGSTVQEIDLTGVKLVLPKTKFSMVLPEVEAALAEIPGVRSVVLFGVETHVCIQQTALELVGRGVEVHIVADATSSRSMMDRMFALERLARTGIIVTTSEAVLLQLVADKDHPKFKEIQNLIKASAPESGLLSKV
Description: as §1, §2, §4, §3, §5
In Lumos settings, up to 12 peptide precursors were isolated in (isolation width of 1.2 Th for Lumos1 and 1.7 for Lumos2, maximum injection time of 75 ms, AGC value of 1e5 for Lumos1 and 2e5 for Lumos2), fragmented by HCD using 30% normalized collision energy (NCE) and analyzed in the Orbitrap at a resolution of 15,000 (Lumos2) or 30,000 (Lumos1). […] Peptides were isolated in the quadrupole with an isolation offset of 1.2 (isolation width of 1.2 Th, maximum injection time of 54 ms, AGC target of 200%) and fragmented by HCD with an NCE of 30% and analyzed in the Orbitrap at a resolution of 30,000. […]

Cl.O=C(NO)c1ccc(-c2nc3ccccc3c3[nH]c4ccccc4c23)cc1 [KV-50]
targets / off-targets bound [1]: bound to HINT1 and NME4 | EC50 [2]: 1000 to 2000 nM | EC50 [3]: 2 to 5 µM | morphological changes ([4]; HeLa cells under TF assay conditions, similar in SW-620 and HEK293T): rounding and swelling of cells | ratio of internalized TF to surface-bound TF ([4]; HeLa cells, 20 µM, 20 h): reduced ratio of internalized TF to surface-bound TF | IC50 ([5]; SW620, Alamar blue, read-out: concentration decreasing metabolic activity by 50%): 3600 nM | IC50 ([5]; read-out: concentration reducing SW620 cell confluency by 50%): 870 nM

CC(=O)c1ccc(CN2c3ccccc3Sc3ccccc32)cc1 [MM-20]
concentration up to which no binding to HDAC6 [6]: > 10 µM | concentration up to which no binding to MBLAC2 [7]: > 10 µM

Cn1cc(CNCC2CCN(c3ncc(C(=O)NO)cn3)CC2)c2ccccc21 [Quisinostat]
concentration up to which no binding to NMEs [8]: > 30 µM

COc1ccc(N(C)c2nc(C)nc3ccccc23)cc1OCCCC(=O)NO [SKLB-23bb]
EC50 [9]: 5.6 µM
